The values below come from patent EP0663912B1, “HETEROCYCLIC ETHER COMPOUNDS THAT ENHANCE COGNITIVE FUNCTION” (ABBOTT LABORATORIES, priority 1992, dated 1994).

A short description of experiment [1]: Inhibitory (passive) avoidance (IA) test of learning/memory. In kind it is in vivo. The text has this: The inhibitory (or sometimes called passive) avoidance (IA) test is a well accepted animal model of learning/memory used to assess the activity of novel cholinergic agonists to enhance cognitive function (Wanibuchi et al., Eur. J. Pharmacol., 1990, 187:479). Animals are placed in the illuminated (12 X 14 X 11 cm) portion of a two-chambered box, from which they enter through a guillotine door to the larger (24 X 13.5 X 12 cm) dark compartment of the box. Entry to the dark compartment is accompanied by a mild (0.5 mA), brief (2 seconds) footshock. Initial latencies to cross are recorded, with an imposed 60 second ceiling. Following a 72 hour retention interval, animals are returned to the illuminated chamber, and latency to return to the dark compartment is again recorded, with a ceiling of 180 seconds. No footshock is administered on the test day.
Twelve animals were used in each group.

A further experiment deals with CD1 mice. In words: Mouse elevated plus-maze (EPM) test of anxiolytic activity. In kind it is in vivo. An excerpt:
The mouse elevated plus-maze is a conflict test that probes anxiolytic activity of test compounds (Lister, Psychopharmacology, 1987, 92:180). It is based on the fact that exposure of mice to an elevated open arm leads to an avoidance response considerably stronger than that evoked by exposure to an enclosed arm.
The apparatus required to perform this test is made of plywood and consists of two open arms (17 X 8 cm) and two enclosed arms (17 X 8 X 15 cm) extending from a central platform (8 X 8 cm). It is mounted on a plywood base rising 39 cm above the floor. Mice are released on the central platform and the time spent in the open and enclosed arms is recorded during a 5 minute test period. The test compounds were administered to CD1 mice 15 minutes before the test. […]

In experiment [2] the test system is cholinergic channel receptors in PC12 cells. In words: Whole-cell patch-clamp measurement of cholinergic channel activation in NGF-differentiated PC12 cells. In kind it is cell-based, rat. Particulars: for CURRENT AT PEAK: holding potential -60 mV. An excerpt: B. Protocols for the Determination of Cholinergic Channel Activation in PC12 Cells.
The cholinergic channel activator properties of Example 9 were investigated in PC12 cells using the whole-cell patch-clamp approach to measure current flow through ligand-gated membrane channels. […]
PC12 cells are a rat pheochromocytoma cell line that, upon treatment with nerve growth factor (NGF) differentiate into a neuronal phenotype and express nicotinic cholinergic channels (Greene & Tischier, Proceedings of the National Academy of Sciences of the United States of America, 73: 2424-2428, 1976; Dichter et al., Nature, 268: 501-504, 1977). Prominent neuronal cholinergic channel subunits in these cells are α3, α5, β2, β3 and β4 (Rogers et al., Journal of Neuroscience, 12: 4611-4623, 1992).
PC12 cells were obtained initially from ATCC and, using standard techniques were maintained in DMEM containing 10% heat-inactivated fetal calf serum and 5% heat-inactivated horse serum (37°C, 95% 02 & 5% CO2). Electrophysiologic recordings were obtained from differentiated (neurite-bearing) cells after 4-7 days exposure to NGF. For this purpose, the undifferentiated cells were first plated onto polylysine-coated 12 mm round glass coverslips in 60x15 mm plastic Petri dishes. After 20 minutes, differentiating medium was added (DMEM containing 100 ng/ml nerve growth factor, 5% heat-inactivated fetal calf serum and 2.5% heat-inactivated horse serum) and the cells were refed with this medium every 3 days.
The whole-cell patch-clamp technique was used to record voltage-activated currents and ligand-gated currents activated by substances applied through the U-tube flow-reversal technique (Fenwick et al., The Journal of Physiology (London) 331: 577-597, 1982). A coverslip bearing the cells was transferred from culture dish to the recording chamber (350 µL volume) and superfused (1 ml/min) at room temperature with an extracellular solution containing 150 mM NaCl, 2.8 mM KCI, 2.0 mM CaCl2, 1.0 mM MgCl2, ≥ 10 mM dextrose and 10 mM Na-HEPES buffer (7.3 pH, 325 mOsm). The intracellular (recording pipette) solution consisted of 140 mM KCl, 1.0 mM CaCl2, 2.0 mM MgCl2, 11 mM K-EGTA, and 10 mM K-HEPES buffer (7.3 pH, 315 mOsm). Osmolarities were adjusted using dextrose such that the extracellular solution was 10 mOsm hypertonic compared to the intracellular solution. Voltage-gated inward (sodium) and outward (potassium) currents were monitored throughout the experiment to determine establishment and maintenance of the whole-cell recording configuration.
The ligand was applied at least twice at each concentration in every cell, and applications were separated by ≥ 3 minutes to allow for recovery from desensitization, washout of the bathing solution, and re-equilibration of the U-tube. Antagonists were applied to the bathing solution through superfusion for 5-10 minutes prior to application of both antagonist and agonist through the U-tube flow reversal.

The mark [3] stands for this setting: level of improvement in retention of the avoidance response, dose or dose range in brackets, IP 15 minutes before training, 12 animals per group.
Where [4] appears, read: level of increase in time spent in the open arms, dose or dose range in brackets, given 15 minutes before 5 minute test.

Values joined by “and” are separate entries in the source; they are usually repeats but may differ in a detail not shown here. Equal entries are not always repeated. Structures can show the parent of a compound that is named as a salt.

Turning to `CN1CCC[C@H]1COc1cccnc1.O=C(O)/C=C/C(=O)O` [Example 4, 3-(1-Methyl-2-(S)-pyrrolidinylmethyloxy)pyridine fumarate], the IA entry in experiment [1] (setting [3]) was “significant [0.019]”. The EPM entry in the experiment on CD1 mice (setting [4]) is “NE [0.019-0.62]”.
The corresponding values for `Cl.Cl.Clc1cncc(OC[C@@H]2CCCN2)c1` [Example 15, 5-Chloro-3-(2-(S)-pyrrolidinylmethyloxy)pyridine dihydrochloride] are “significantly inhibits [0.062]” and “significant [0.062- 0.19]”.
The corresponding values for `CC1CC[C@@H](COc2cccnc2)N1C.Cl.Cl` (stereo partly drawn) [Example 22, 3-(1-Methyl-5-methyl-2-(S)-pyrrolidinylmethyloxy)pyridine dihydrochloride] are “NE [0.062- 1.9]” and “NE [0.062-1.9]”.
The corresponding values for `c1cncc(OC[C@@H]2CCCN2)c1` [Example 14, 3-(2-(S)-pyrrolidinylmethyloxy)pyridine furmarate] are “NE [0.019- 0.62]” and “marginal [0.019]”.
On to `Cl.c1cncc(OC[C@@H]2CCN2)c1` [Example 9, 3-(2-(S)-azetidinylmethyloxy)pyridine hydrochloride], for which the “CURRENT AT PEAK” value in experiment [2] (10 µM Example 9, individual PC12 cells A-E, hydrochloride) was 165 pA and 173 pA and 484 pA and 283 pA and 702 pA. In experiment [2] (10 µM Example 9, n=5 PC12 cells), the “CURRENT AT PEAK, MEAN±S.E.M.” value amounted to 361 ±103 pA. Further, the “RESPONSE RATIO Example 9 /(-)-NICOTINE” value in experiment [2] (10 µM Example 9 versus 50 µM (-)-nicotine in the same cell, individual PC12 cells A-E, hydrochloride, 10 µM) is 203% and 161% and 171% and 173% and 130%. Also, in experiment [2] (10 µM Example 9 versus 50 µM (-)-nicotine in the same cell, n=5), the “RESPONSE RATIO Example 9 /(-)-NICOTINE, MEAN±S.E.M.” value came out at 168 ± 12%. For the same molecule, the IA entry in experiment [1] (setting [3]) was “NE [0.0019- 0.062]”. Further, the EPM result in the experiment with CD1 mice (setting [4]) is “significant [0.0062]”.
In the case of `CNC1(C)C2CCC(C2)C1(C)C` (centres unmarked) [Mecamylamine, reference compound], the “inhibition of the responses to Example 9” value in experiment [2] (Mecamylamine 10 µM against Example 9 10 µM, n=4) was ≥ 80%.
Take `CN1CCCC1c1cccnc1` (single isomer, unassigned; (-)) [(-)-nicotine, reference compound]: the “CURRENT AT PEAK” value in experiment [2] (50 µM (-)-nicotine, individual PC12 cells A-E) was 81 pA and 108 pA and 163 pA and 539 pA. For the same molecule, the “CURRENT AT PEAK, MEAN±S.E.M.” value in experiment [2] (50 µM (-)-nicotine, n=5 PC12 cells) is on record as 235 ± 84 pA. The same molecule gave an EC50 in experiment [2] (PC12 cells current response) of 52 µM. Also, the IA result in experiment [1] (in vivo, ip) is “significant [0.19-0.62]”. In addition, in the experiment with CD1 mice (mouse, in vivo), the EPM result was “significant [0.62-1.9]” and the “time spent by the mice in the open arms of the maze” value is listed as “significant increase”.
For the molecule `CN1CCC[C@H]1COc1cnccn1.O=C(O)/C=C/C(=O)O` [Example 3, 2-(1-Methyl-2-(S)-pyrrolidinylmethyloxy)pyrazine fumarate], in experiment [1] (setting [3]), the IA entry is “NE [0.062-1.9]”. Besides, the EPM result with CD1 mice (setting [4]) was “NE [0.019-0.62]”.
Consider `CN1CC[C@H]1COc1cccnc1.Cl` [Example 10, 3-(1-Methyl-2-(S)-azetidinylmethyloxy)pyridine hydrochloride], for which, in experiment [1] (setting [3]), the IA entry was “marginal [0.62]”. Besides, the EPM entry with CD1 mice (setting [4]) was “significant [0.19]”.
For the molecule `Cc1ccc(OC[C@@H]2CCCN2C)cn1.Cl.Cl` [Example 19, 6-Methyl-3-(1-methyl-2-(S)-pyrrolidinylmethyloxy)pyridine dihydrochloride], in experiment [1] (setting [3]), the IA entry was “NE [0.019- 0.62]”. Further, the EPM result in the experiment on CD1 mice (setting [4]) is “NE [0.019-62]”.
`CN1CC[C@H]1COc1cnccn1.Cl` [Example 8, 2-(1-Methyl-2-(S)-azetidinylmethyloxy)pyrazine hydrochloride]: the IA result in experiment [1] (setting [3]) is “NE [0.062- 1.9]”. In addition, the EPM entry in the experiment on CD1 mice (setting [4]) was “NE [0.062- 1.9]”.
For the molecule `CN1CCC[C@H]1COc1cncc(Cl)c1.Cl.Cl` [Example 16, 5-Chloro-3-(1-methyl-2-(S)-pyrrolidinylmethyloxy)pyridine dihydrochloride], the IA result in experiment [1] (setting [3]) was “significant [0.019]”. Also, the EPM result with CD1 mice (setting [4]) was “NE [0.019- 0.62]”.
For the molecule `Cc1ncccc1OC[C@@H]1CCN1.Cl.Cl` [Example 29, 2-Methyl-3-(2-(S)-azetidinylmethyloxy)pyridine dihydrochloride], the IA result in experiment [1] (setting [3]) is “significantly Inhibits [19]”. Moreover, in the experiment on CD1 mice (setting [4]), the EPM entry was “significant [0.62, 1.9]”.
As to `c1csc(OCC23CCCN2CCC3)n1` [Example 34, 2-(1-(8-pyrrolizidinyl)methyloxy)thiazole hydrochloride salt], the IA entry in experiment [1] (setting [3]) was “NE [0.062-1.9]”. For the same molecule, in the experiment with CD1 mice (setting [4]), the EPM result was “marginal [0.62]”.
The matching figures for `Cc1ccc(OC[C@@H]2CCCN2)cn1.Cl.Cl` [Example 18, 6-Methyl-3-(2-(S)-pyrrolidinylmethyloxy)pyridine dihydrochloride]: “NE [0.019- 0.62]” and “significant [0.062- 0.19]”.
On to `Cl.c1cnc(OC[C@@H]2CCN2)cn1` [Example 7, 2-(2-(S)-azetidinylmethyloxy)pyrazine hydrochloride], for which, in experiment [1] (setting [3]), the IA entry is reported as “marginal”. Moreover, the EPM result in the experiment on CD1 mice (setting [4]) is “NE [0.019-0.62]”.
For `Cc1ncccc1OC[C@@H]1CCCN1.Cl.Cl` [Example 17, 2-Methyl-3-(2-(S)-pyrrolidinylmethyloxy)pyridine dihydrochloride], in experiment [1] (setting [3]), the IA entry was “significant [0.062, 0.62, 1.9]”. For the same molecule, in the experiment on CD1 mice (setting [4]), the EPM result is “significant [1.9]”.
